In article PMC10023787, “Trio-pharmacophore DNA-encoded chemical library for simultaneous selection of fragments and linkers” (Nature Communications, 2023):

Assays:
[1] = target: T1, MMP-2 (Homo sapiens, UniProt P08253); assay: MMP-2 inhibition assay (fluorogenic peptide substrate); type: biochemical; details: for remaining activity (%): MMP-2; for IC50: mean ± SE, n.d: not detected, Fig. 5d unit inferred, µM, read-out: IC50
T1 construct: purchased Sino Biological 10082-HNAH
T1 sequence (P08253 110-660): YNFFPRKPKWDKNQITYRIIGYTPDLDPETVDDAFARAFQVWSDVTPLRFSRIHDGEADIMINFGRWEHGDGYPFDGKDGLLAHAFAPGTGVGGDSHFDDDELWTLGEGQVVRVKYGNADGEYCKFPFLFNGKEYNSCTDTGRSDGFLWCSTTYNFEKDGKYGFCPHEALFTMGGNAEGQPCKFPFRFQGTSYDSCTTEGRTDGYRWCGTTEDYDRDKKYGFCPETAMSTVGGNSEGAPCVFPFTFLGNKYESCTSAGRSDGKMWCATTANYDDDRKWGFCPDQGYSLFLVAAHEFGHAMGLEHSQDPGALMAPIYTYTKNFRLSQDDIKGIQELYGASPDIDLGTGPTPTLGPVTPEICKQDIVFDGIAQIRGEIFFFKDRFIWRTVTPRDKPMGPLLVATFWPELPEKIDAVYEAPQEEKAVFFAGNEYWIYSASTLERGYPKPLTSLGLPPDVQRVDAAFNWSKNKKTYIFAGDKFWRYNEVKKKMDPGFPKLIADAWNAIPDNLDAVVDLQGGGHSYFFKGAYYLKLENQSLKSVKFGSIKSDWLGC
Experimental: (§1) The inhibition by the small molecule compounds against MMP-2/MMP-9 was measured using an assay probing the enzyme proteolytic activity on the substrate DNP-Pro-Leu-Gly-Met-Trp-Ser-Arg (Enzo Life Sciences, USA). All assays were performed in the assay buffer containing 50 mM Tris, 100 mM NaCl. 5 mM CaCl2, and 0.1% Brij 35, pH 7.5. Human proMMP-2 and proMMP-9 were purchased from Sino biological (Germany). The proMMPs were activated by 1 mM APMA in the assay buffer at 37 °C for 2 h. After activation, MMP-2 was diluted to 6.5 nM of final assay concentration, and MMP-9 was diluted by the buffer to reach 10 nM of final assay concentration. In each well, 49 μl of enzyme solution was incubated with 1 μl of compounds of series of concentration (nM-mM in DMSO) at RT for 30 min. 2 μl of the FRET substrate was added right before the measurement at a final concentration of 25 μM. The rate of hydrolysis was monitored by quantifying the emission at 360 nm (ex: 280 nm). The emission was measured with intervals of the 30 s for 30 min with Synergy H1 Plate Reader (Agilent, USA). The measurements were done in triplicate. […] Then, curves were plotted as a function of the concentration of the inhibitor against the relative enzyme activity. Vmax was derived from the detected […] signal for each concentration and logistic fitting was performed to obtain IC50 values using Origin 2019b (OriginLab).

[2] = target: T2, MMP-9 (Homo sapiens, UniProt P14780); assay: MMP-9 inhibition assay (fluorogenic peptide substrate); type: biochemical; set-up: remaining enzyme activity (% of control): scale not given here; details: for remaining enzyme activity (% of control): MMP-9; for IC50: mean ± SE, n.d: not detected, Fig. 5e prints no unit, µM, read-out: IC50
T2 construct: purchased Sino Biological 10327-HNAH
T2 sequence (P14780 107-707 limits assumed): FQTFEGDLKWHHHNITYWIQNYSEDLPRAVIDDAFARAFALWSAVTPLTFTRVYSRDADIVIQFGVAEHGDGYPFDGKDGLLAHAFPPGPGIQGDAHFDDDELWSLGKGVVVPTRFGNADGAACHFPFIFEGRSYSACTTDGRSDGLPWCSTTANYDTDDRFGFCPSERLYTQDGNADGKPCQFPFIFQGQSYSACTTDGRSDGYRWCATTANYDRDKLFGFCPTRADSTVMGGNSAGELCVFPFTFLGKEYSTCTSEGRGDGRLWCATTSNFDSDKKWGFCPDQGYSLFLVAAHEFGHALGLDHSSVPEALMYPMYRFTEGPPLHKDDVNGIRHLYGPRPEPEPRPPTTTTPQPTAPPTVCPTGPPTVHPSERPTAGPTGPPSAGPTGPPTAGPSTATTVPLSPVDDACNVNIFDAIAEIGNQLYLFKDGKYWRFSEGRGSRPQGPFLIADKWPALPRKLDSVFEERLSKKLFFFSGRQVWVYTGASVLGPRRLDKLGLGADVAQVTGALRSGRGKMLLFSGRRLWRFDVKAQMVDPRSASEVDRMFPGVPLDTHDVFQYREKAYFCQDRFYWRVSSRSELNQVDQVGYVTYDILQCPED
Experimental: as §1

Row | Structure (SMILES) | remaining activity (%) ([1]; concentration 0.12 µM) | remaining activity (%) ([1]; concentration 0.49 µM) | remaining activity (%) ([1]; concentration 1.95 µM) | remaining activity (%) ([1]; concentration 7.81 µM) | remaining activity (%) ([1]; concentration 31.25 µM) | remaining activity (%) ([1]; concentration 125.00 µM) | remaining activity (%) ([1]; concentration 500.00 µM) | remaining enzyme activity (% of control) ([2]; concentration 0.12 µM) | remaining enzyme activity (% of control) ([2]; concentration 0.49 µM) | remaining enzyme activity (% of control) ([2]; concentration 1.95 µM) | remaining enzyme activity (% of control) ([2]; concentration 7.81 µM) | remaining enzyme activity (% of control) ([2]; concentration 31.25 µM) | remaining enzyme activity (% of control) ([2]; concentration 125.00 µM) | remaining enzyme activity (% of control) ([2]; concentration 500.00 µM) | remaining enzyme activity (% of control) ([2]; concentration 0.08 µM) | remaining enzyme activity (% of control) ([2]; concentration 0.39 µM) | remaining enzyme activity (% of control) ([2]; concentration 9.75 µM) | remaining enzyme activity (% of control) ([2]; concentration 48.76 µM) | remaining enzyme activity (% of control) ([2]; concentration 243.80 µM) | remaining enzyme activity (% of control) ([2]; concentration 1219.00 µM) | other results
1 | Cn1c(O)nc2cc(C(=O)NCCOCCOCCNC(=O)CNC(=O)NC34CC5CC(CC(C5)C3)C4)cnc21 [66+826 Linker 10] | 101.73 | 104.42 | 99.57 | 96.59 | 91.55 | 88.04 | 85.39 | 99.87 | 98.00 | 97.71 | 90.00 | 87.32 | 80.00 | 70.00 |  |  |  |  |  |  | 
2 | Cn1c(O)nc2cc(C(=O)NCCCC/C=C/C(=O)CC(=O)NCC34CC5CC(CC(C5)C3)C4)cnc21 [66+826 Linker 12] | 102.70 | 99.61 | 102.06 | 101.87 | 95.39 | 94.81 | 77.92 | 93.60 | 81.81 | 96.97 | 103.45 | 97.31 | 94.06 | 80.41 |  |  |  |  |  |  | 
3 | Cn1c(O)nc2cc(C(=O)NCCSCC(=O)NCC34CC5CC(CC(C5)C3)C4)cnc21 [66+826 Linker 24] | 102.86 | 110.62 | 101.91 | 112.01 | 94.11 | 93.82 | 94.00 | 103.98 | 100.00 | 102.00 | 100.00 | 108.11 | 104.50 | 89.34 |  |  |  |  |  |  | 
4 | O=C(CNC(=O)NC12CC3CC(CC(C3)C1)C2)NCCCCCCCCNC(=O)c1cncc(O)c1 [66+828 Linker 4] |  |  | 95.05 |  |  |  |  |  |  | 101.95 |  |  |  |  | 92.81 | 100.82 | 96.31 | 80.00 | 52.30 | 13.62 | remaining activity (%) ([1]; concentration 0.0156 µM): 106.93; remaining activity (%) ([1]; concentration 0.08 µM): 108.75; remaining activity (%) ([1]; concentration 0.39 µM): 91.04; remaining activity (%) ([1]; concentration 9.75 µM): 96.24; remaining activity (%) ([1]; concentration 48.76 µM): 69.88; remaining activity (%) ([1]; concentration 243.80 µM): 65.10; remaining activity (%) ([1]; concentration 1219.00 µM): 54.12
5 | O=C(CNC(=O)NC12CC3CC(CC(C3)C1)C2)NCCOCCOCCNC(=O)c1cncc(O)c1 [66+828 Linker 10] |  |  |  |  |  |  |  |  |  | 97.80 |  |  |  |  | 104.97 | 105.32 | 93.32 | 91.82 | 71.42 | 29.10 | remaining activity (%) ([1]; concentration 0.07 µM): 92.68; remaining activity (%) ([1]; concentration 0.33 µM): 96.27; remaining activity (%) ([1]; concentration 1.67 µM): 86.29; remaining activity (%) ([1]; concentration 8.34 µM): 96.46; remaining activity (%) ([1]; concentration 41.72 µM): 79.41; remaining activity (%) ([1]; concentration 208.60 µM): 61.20; remaining activity (%) ([1]; concentration 1043.00 µM): 17.26; remaining activity (%) ([1]; concentration […]): 100.18; IC50 [1]: 293 ± 32.6 µM; IC50 [2]: 521 ± 36.5 µM
6 | O=C(C=CCCCCNC(=O)c1cncc(O)c1)CC(=O)NCC12CC3CC(CC(C3)C1)C2 [66+828 Linker 12] |  |  | 94.73 |  |  |  |  |  |  | 101.49 |  |  |  |  | 103.52 | 103.70 | 97.37 | 61.33 | 18.36 | 3.09 | remaining activity (%) ([1]; concentration 0.0156 µM): 99.10; remaining activity (%) ([1]; concentration 0.08 µM): 102.47; remaining activity (%) ([1]; concentration 0.39 µM): 95.82; remaining activity (%) ([1]; concentration 9.75 µM): 93.23; remaining activity (%) ([1]; concentration 48.76 µM): 86.38; remaining activity (%) ([1]; concentration 243.80 µM): 70.35; remaining activity (%) ([1]; concentration 1219.00 µM): 22.32; IC50 [1]: 488 ± 45.3 µM; IC50 [2]: 77.4 ± 13.9 µM
